Data taken from patent US20220235064A1 (WELLMARKER BIO CO., LTD., priority 2019, published 2022).

What was measured:
[1] = biological target: T1, RON tyrosine kinase (Homo sapiens, UniProt Q04912); experiment: Enzyme inhibitory activity against RON tyrosine kinase (TR-FRET); type: biochemical; conditions: RON (Carna Bioscience)
T1 construct: purchased Carna Bioscience
Procedure: Experimental Example 1: Measurement of Enzyme Inhibitory Activity Against RON Tyrosine Kinase
To measure enzyme inhibitory activity of the example compounds against RON, IC50 values of the compounds were measured using fluorescence resonance energy transfer (FRET).
Specifically, first, RON (Carna Bioscience) was diluted in a kinase assay buffer (50 mM HEPES pH 7.5, 1 mM EGTA, 10 mM MgCl2, 2 mM DTT, and 0.01% Tween-20) to be at a concentration (0.4 nM) that is twice the final reaction concentration. The dilute was added to a 384-well-plate at 5 μl per well. Each of the example compounds was prepared at a concentration of 1 mM in 100% DMSO and diluted 8 times in a stepwise manner through 10-fold dilution. Each compound was diluted in a kinase assay buffer to be at a concentration that is 4 times the final reaction concentration. The dilute was added to a 384-well-plate at 2.5 μl per well, and incubation was performed at room temperature for 15 minutes.
Thereafter, an ATP solution (Sigma Aldrich) prepared at a concentration of 0.25 M was diluted in a kinase assay buffer to be at a concentration (60 μM) that is 4 times the final reaction concentration. Dilution of a tyrosine peptide substrate (Perkin-Elmer) was performed therein to be at a concentration (400 nM) that is 4 times the final reaction concentration. The dilute was added to a 384-well-plate at 2.5 µl per well. Reaction was allowed to proceed for 60 minutes by incubating the 384-well-plate at room temperature. Thereafter, EDTA (Sigma Aldrich) was diluted in a TR-FRET detection buffer (Perkin-Elmer) to be at a concentration (20 mM) that is twice the final reaction concentration. Dilution of a Europium-containing phosphotyrosine antibody (Perkin-Elmer) was performed in the diluted EDTA solution to be at a concentration (4 nM) that is twice the final reaction concentration, so that a stop solution for RON reaction was prepared.
The stop solution was added to the 384-well-plate at 10 μl per well to quench the reaction, and incubation was performed at room temperature for 60 minutes. Then, the 384-well-plate was read on a Victor X5 (Perkin-Elmer) plate reader. Here, the excitation wavelength was 340 nm, and the emission wavelengths were 620 nm and 665 nm. An IC50 value of the compound was derived using GraphPad Prism 5 program, in which the IC50 was derived by expressing emission energy at the wavelength of 665 nm as a function of the compound concentration.

[2] = test system: cancer cell line KM12C, in which RON is activated; experiment: Cell growth inhibitory ability in RON-activated cancer cell line (MTS); type: cell-based; conditions: Homo sapiens, 48 hours, absorbance 490 nm
Procedure: Experimental Example 2: Identification of Cell Growth Inhibitory Ability of Example Compounds in RON-Activated Cancer Cell Line
The cancer cell line KM12C (80015, KCLB, MEM+1K° FBS), in which RON is activated, was treated with each of the example compounds at a concentration of 10 μM, and then reaction was allowed to proceed for 48 hours. 24 hours after completion of the reaction, 20 μl of MTS solution (CellTiter 96 Aqueous One Solution Cell Proliferation Assay, product number: G3581, Promega) was added to each well, and then incubation was performed at a temperature of 37° C. in 50 CO2 incubator for 4 hours. Then, an IC50 value of the compound was derived by measuring its absorbance value at a wavelength of 490 nm using a Victor X5 plate reader. Here, as a positive control, N-(4-(2-amino-3-chloropyridin-4-yloxy)-3-fluorophenyl)-4-ethoxy-1-(4-fluorophenyl)-2-oxo-1,2-dihydropyridine-3-carboxamide, which is the compound of Example 1 in WO 2008/058229 A1, was used.

T1 sequence (Q04912 25-1400): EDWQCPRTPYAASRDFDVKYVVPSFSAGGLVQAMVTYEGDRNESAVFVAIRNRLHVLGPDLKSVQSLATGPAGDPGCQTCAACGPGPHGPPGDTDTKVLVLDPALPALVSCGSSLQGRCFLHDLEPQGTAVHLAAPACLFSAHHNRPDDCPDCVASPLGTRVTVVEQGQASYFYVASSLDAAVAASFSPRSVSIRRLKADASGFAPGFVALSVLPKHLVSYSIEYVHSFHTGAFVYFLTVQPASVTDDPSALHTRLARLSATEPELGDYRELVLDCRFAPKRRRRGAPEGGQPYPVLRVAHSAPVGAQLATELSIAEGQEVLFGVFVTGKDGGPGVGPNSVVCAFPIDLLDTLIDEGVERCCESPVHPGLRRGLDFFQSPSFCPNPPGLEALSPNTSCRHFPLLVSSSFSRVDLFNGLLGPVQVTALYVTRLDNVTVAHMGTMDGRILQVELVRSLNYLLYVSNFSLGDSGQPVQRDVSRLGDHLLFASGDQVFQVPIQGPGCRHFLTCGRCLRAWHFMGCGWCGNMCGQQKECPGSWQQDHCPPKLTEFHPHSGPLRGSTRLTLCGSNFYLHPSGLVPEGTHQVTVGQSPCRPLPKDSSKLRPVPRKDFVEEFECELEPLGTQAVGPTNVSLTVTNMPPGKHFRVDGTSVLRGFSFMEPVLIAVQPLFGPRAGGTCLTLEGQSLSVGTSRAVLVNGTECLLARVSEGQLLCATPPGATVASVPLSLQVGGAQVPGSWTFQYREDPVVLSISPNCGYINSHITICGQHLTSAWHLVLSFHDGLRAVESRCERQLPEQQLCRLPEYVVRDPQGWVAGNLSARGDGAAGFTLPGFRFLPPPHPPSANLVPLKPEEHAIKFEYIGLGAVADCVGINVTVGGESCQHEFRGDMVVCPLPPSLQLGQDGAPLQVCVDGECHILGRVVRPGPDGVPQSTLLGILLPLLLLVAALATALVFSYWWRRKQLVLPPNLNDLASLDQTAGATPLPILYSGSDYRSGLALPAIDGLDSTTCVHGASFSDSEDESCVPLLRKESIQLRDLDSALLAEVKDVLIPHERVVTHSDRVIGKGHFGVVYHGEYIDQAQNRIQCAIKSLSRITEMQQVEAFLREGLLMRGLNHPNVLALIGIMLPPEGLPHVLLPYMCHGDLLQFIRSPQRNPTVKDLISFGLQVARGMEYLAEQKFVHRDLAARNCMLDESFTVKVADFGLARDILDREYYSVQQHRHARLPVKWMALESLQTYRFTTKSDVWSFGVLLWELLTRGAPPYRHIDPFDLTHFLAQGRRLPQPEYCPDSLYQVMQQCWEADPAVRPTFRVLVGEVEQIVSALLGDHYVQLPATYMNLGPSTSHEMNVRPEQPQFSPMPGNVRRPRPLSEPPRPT

Row | SMILES | IC50 [1] [nM] | IC50 [2] [nM]
1 | O=C(Nc1ccc(Oc2ccnc3cc(OCCN4CCOCC4)c(Cl)cc23)c(F)c1)c1c2c(cn(-c3ccc(F)cc3)c1=O)CCO2 [Example 171, N-(4-((6-Chloro-7-(2-morpholinoethoxy)quinolin-4-yl)oxy)-3-fluorophenyl)-5-(4-fluorophenyl)-6-oxo-2,3,5,6-tetrahydrofuro[3,2-c]pyridine-7-carboxamide] | 7.13 | 8
2 | COc1cc2c(Oc3ccc(NC(=O)c4c5c(cn(-c6ccccc6)c4=O)CCO5)cc3F)ccnc2cc1OCCN1CCOCC1 [Example 79, N-(3-Fluoro-4-((6-methoxy-7-(2-morpholinoethoxy)quinolin-4-yl)oxy)phenyl)-6-oxo-5-phenyl-2,3,5,6-tetrahydrofuro[3,2-c]pyridine-7-carboxamide] | 0.78 | 1
3 | O=C(Nc1ccc(Oc2ccnc3ccc(OCCCN4CCOCC4)cc23)c(F)c1)c1c2c(cn(-c3ccc(F)cc3)c1=O)CCO2 [Example 178, N-(3-Fluoro-4-((6-(3-morpholinopropoxy)quinolin-4-yl)oxy)phenyl)-5-(4-fluorophenyl)-6-oxo-2,3,5,6-tetrahydrofuro[3,2-c]pyridine-7-carboxamide] | 0.45 | 25
4 | O=C(Nc1ccc(Oc2ccnc(NCCCN3CCOCC3)c2Cl)c(F)c1)c1c2c(cn(-c3ccc(F)cc3)c1=O)CCO2 [Example 62, N-(4-((3-Chloro-2-((3-morpholinopropyl)amino)pyridin-4-yl)oxy)-3-fluorophenyl)-5-(4-fluorophenyl)-6-oxo-2,3,5,6-tetrahydrofuro[3,2-c]pyridine-7-carboxamide] | 12.3 | 1670
5 | O=C(Nc1ccc(Oc2ncnc3[nH]ccc23)c(F)c1)c1c2c(cn(-c3ccc(F)cc3)c1=O)CCO2 [Example 71, N-(4-((7H-pyrrolo[2,3-d]pyrimidin-4-yl)oxy)-3-fluorophenyl)-5-(4-fluorophenyl)-6-oxo-2,3,5,6-tetrahydrofuro[3,2-c]pyridine-7-carboxamide] | 8.24 | 11
6 | Cn1cnc(-c2cc3nccc(Oc4ccc(NC(=O)c5c6c(cn(-c7ccccc7)c5=O)CCO6)cc4F)c3s2)c1 [Example 9, N-(3-Fluoro-4-((2-(1-methyl-1H-imidazol-4-yl)thieno[3,2-b]pyridin-7-yl)oxy)phenyl)-6-oxo-5-phenyl-2,3,5,6-tetrahydrofuro[3,2-c]pyridine-7-carboxamide] | 0.5 | 0.6
7 | COc1cc2c(Oc3ccc(NC(=O)c4c5c(cn(-c6ccc(F)cc6)c4=O)CCC5)cc3F)ccnc2cc1OCCCN1CCOCC1 [Example 77, N-(3-Fluoro-4-((6-methoxy-7-(3-morpholinopropoxy)quinolin-4-yl)oxy)phenyl)-2-(4-fluorophenyl)-3-oxo-3,5,6,7-tetrahydro-2H-cyclopenta[c]pyridine-4-carboxamide] | 9.32 | 10
8 | O=C(Nc1ccc(Oc2ncnc3[nH]ncc23)c(F)c1)c1c2c(cn(-c3ccc(F)cc3)c1=O)CCO2 [Example 73, N-(4-((1H-pyrazolo[3,4-d]pyrimidin-4-yl)oxy)-3-fluorophenyl)-5-(4-fluorophenyl)-6-oxo-2,3,5,6-tetrahydrofuro[3,2-c]pyridine-7-carboxamide] | 17.5 | 8
9 | O=C(Nc1ccc(Oc2ccnc3cc(OCCCN4CCOCC4)c(F)cc23)c(F)c1)c1c2c(cn(-c3ccc(F)cc3)c1=O)CCO2 [Example 168, N-(3-Fluoro-4-((6-fluoro-7-(3-morpholinopropoxy)quinolin-4-yl)oxy)phenyl)-5-(4-fluorophenyl)-6-oxo-2,3,5,6-tetrahydrofuro[3,2-c]pyridine-7-carboxamide] | 0.45 | 25
10 | COc1cc2nccc(Oc3ccc(NC(=O)c4c5c(cn(-c6ccc(F)cc6)c4=O)CCO5)cc3F)c2cc1NC(=O)CN1CCOCC1 [Example 53, N-(3-Fluoro-4-((7-methoxy-6-(2-morpholinoacetamido)quinolin-4-yl)oxy)phenyl)-5-(4-fluorophenyl)-6-oxo-2,3,5,6-tetrahydrofuro[3,2-c]pyridine-7-carboxamide] | 1.03 | 3
11 | COc1cc2nccc(Oc3ccc(NC(=O)c4c5c(cn(-c6ccc(F)cc6)c4=O)CCO5)cc3F)c2cc1N [Example 179, N-(4-((6-Amino-7-methoxyquinolin-4-yl)oxy)-3-fluorophenyl)-5-(4-fluorophenyl)-6-oxo-2,3,5,6-tetrahydrofuro[3,2-c]pyridine-7-carboxamide] | 0.47 | 3

Further lines, results first:

Row | IC50 [1] [nM] | IC50 [2] [nM] | SMILES
12 | 0.83 | 6 | O=C(Nc1ccc(Oc2ccnc3cc(OCCN4CCOCC4)c(F)cc23)c(F)c1)c1c2c(cn(-c3ccc(F)cc3)c1=O)CCO2 [Example 167, N-(3-Fluoro-4-((6-fluoro-7-(2-morpholinoethoxy)quinolin-4-yl)oxy)phenyl)-5-(4-fluorophenyl)-6-oxo-2,3,5,6-tetrahydrofuro[3,2-c]pyridine-7-carboxamide]
13 | 1.24 | 2 | COc1cc2nccc(Oc3ccc(NC(=O)c4c5c(cn(-c6ccc(F)cc6)c4=O)CCO5)cc3F)c2cc1OCCN1CCOCC1 [Example 175, N-(3-Fluoro-4-((7-methoxy-6-(2-morpholinoethoxy)quinolin-4-yl)oxy)phenyl)-5-(4-fluorophenyl)-6-oxo-2,3,5,6-tetrahydrofuro[3,2-c]pyridine-7-carboxamide]
14 | 0.35 | 8 | O=C(Nc1ccc(Oc2ccnc3cc(-c4ccccn4)sc23)c(F)c1)c1c2c(cn(-c3ccccc3)c1=O)CCO2 [Example 4]
15 | 0.58 | 3 | N#Cc1cc2c(Oc3ccc(NC(=O)c4c5c(cn(-c6ccc(F)cc6)c4=O)CCO5)cc3F)ccnc2cc1OCCN1CCOCC1 [Example 173, N-(4-((6-Cyano-7-(2-morpholinoethoxy)quinolin-4-yl)oxy)-3-fluorophenyl)-5-(4-fluorophenyl)-6-oxo-2,3,5,6-tetrahydrofuro[3,2-c]pyridine-7-carboxamide]
16 | 1.61 | 4 | N#Cc1cc2c(Oc3ccc(NC(=O)c4c5c(cn(-c6ccc(F)cc6)c4=O)CCO5)cc3F)ccnc2cc1OCCCN1CCOCC1 [Example 174, N-(4-((6-Cyano-7-(3-morpholinopropoxy)quinolin-4-yl)oxy)-3-fluorophenyl)-5-(4-fluorophenyl)-6-oxo-2,3,5,6-tetrahydrofuro[3,2-c]pyridine-7-carboxamide]
17 | 7.52 | 3 | COc1cc2nccc(Oc3ccc(NC(=O)c4c5c(cn(-c6ccc(F)cc6)c4=O)CCO5)cc3F)c2cc1NCCCN1CCOCC1 [Example 186, N-(3-Fluoro-4-((7-methoxy-6-((3-morpholinopropyl)amino)quinolin-4-yl)oxy)phenyl)-5-(4-fluorophenyl)-6-oxo-2,3,5,6-tetrahydrofuro[3,2-c]pyridine-7-carboxamide]
18 | 0.83 | 6 | O=C(Nc1ccc(Oc2ccnc3ccc(OCCN4CCOCC4)cc23)c(F)c1)c1c2c(cn(-c3ccc(F)cc3)c1=O)CCO2 [Example 177, N-(3-Fluoro-4-((6-(2-morpholinoethoxy)quinolin-4-yl)oxy)phenyl)-5-(4-fluorophenyl)-6-oxo-2,3,5,6-tetrahydrofuro[3,2-c]pyridine-7-carboxamide]
19 | 0.55 | 2 | CCNC(=O)c1cc2c(Oc3ccc(NC(=O)c4c5c(cn(-c6ccc(F)cc6)c4=O)CCO5)cc3F)ccnc2cc1OC [Example 51, N-(4-((6-(Ethylcarbamoyl)-7-methoxyquinolin-4-yl)oxy)-3-fluorophenyl)-5-(4-fluorophenyl)-6-oxo-2,3,5,6-tetrahydrofuro[3,2-c]pyridine-7-carboxamide]
